Assay results taken from patent US20250154169A1, “COMPOUNDS AND METHODS FOR MODULATING SPLICING” (REMIX THERAPEUTICS INC., priority 2021, published 2025).

Tests used:
MYB mRNA = test: Splicing RT-qPCR assay, MYB canonical (CJ) and alternative (AJ) junction mRNA; type: cell-based, human; conditions: Homo sapiens, 24 h, A673 or K562 cells, 24 hours compound treatment, RT-qPCR; for AC50: read-out: MYB AJ (AC50, increase in alternative junction mRNA); for IC50: read-out: MYB CJ (IC50, decrease in canonical junction mRNA)
Outline: (§1)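 A673 or K562 cells were treated 24 h at 37 °C with an 11-point 3-fold compound dilution series (top 10 uM, DMSO ≤0.25%). Lysates went to one-step RT-qPCR measuring canonical (CJ) and alternative-exon (AJ) junction transcripts, normalized to GAPDH, GUSB or PPIA.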

HTT mRNA = test: Splicing RT-qPCR assay, HTT canonical (CJ) and alternative (AJ) junction mRNA; type: cell-based, human; conditions: Homo sapiens, A673 or K562 cells, 24 hours compound treatment; for IC50: 24 h, read-out: HTT CJ (IC50, decrease in canonical junction mRNA); for AC50: read-out: HTT AJ (AC50, increase in alternative junction mRNA)
Outline: as §1

| SMILES | IC50 (MYB mRNA) [nM] | IC50 (HTT mRNA) [nM] | AC50 (MYB mRNA) [nM] | AC50 (HTT mRNA) [nM] |
| --- | --- | --- | --- | --- |
| CCn1cc2c(C3CCNC3)ccc(C(=O)Nc3cc(F)c4nccn4c3)c2n1 (stereo not drawn) [Compound 526, 2-ethyl-N-{8-fluoroimidazo[1,2-a]pyridin-6-yl}-4-(pyrrolidin-3-yl) indazole-7-carboxamide] | 1000 to 10000 | > 10000 | 1000 to 10000 | > 10000 |
| CCN(c1ccc(C(=O)Nc2cc(F)c3nc(C)cn3c2)c2nn(C)cc12)C1CCNCC1 [Compound 527, 4-[ethyl(piperidin-4-yl)amino]-N-{8-fluoro-2-methylimidazo[1,2-a]pyridin-6-yl}-2-methylindazole-7-carboxamide] | 100 to 1000 | > 10000 | 100 to 1000 | > 10000 |
| Cc1cn2cc(NC(=O)c3cc(Cl)c(N4CCNCC4)c4cn(C)nc34)cc(F)c2n1 [Compound 528, 5-chloro-N-{8-fluoro-2-methylimidazo[1,2-a]pyridin-6-yl}-2-methyl-4-(piperazin-1-yl) indazole-7-carboxamide] | 100 to 1000 | > 10000 | 100 to 1000 | > 10000 |
| COc1nc(NC(=O)c2ccc(N3CCNCC3)c3cn(C)nc23)cc2oc(C)nc12 [Compound 529, N-{4-methoxy-2-methyl-[1,3]oxazolo[4,5-c]pyridin-6-yl}-2-methyl-4-(piperazin-1-yl) indazole-7-carboxamide] | < 100 | < 100 | < 100 | 100 to 1000 |
| Cc1cn2cc(NC(=O)c3ccc(N4CC[C@@H](NC5COC5)C4)c4cn(C)nc34)cc(F)c2n1 [Compound 531, N-{8-fluoro-2-methylimidazo[1,2-a]pyridin-6-yl}-2-methyl-4-[(3R)-3-(oxetan-3-ylamino)pyrrolidin-1-yl]indazole-7-carboxamide] | 100 to 1000 | 1000 to 10000 | 1000 to 10000 | 1000 to 10000 |
| Cc1cn2cc(NC(=O)c3ccc(N4CC[C@@H](NC5CCC5)C4)c4cn(C)nc34)cc(F)c2n1 [Compound 533, (R)-4-(3-(cyclobutylamino)pyrrolidin-1-yl)-N-(8-fluoro-2-methylimidazo[1,2-a]pyridin-6-yl)-2-methyl-2H-indazole-7-carboxamide] | < 100 | 1000 to 10000 | < 100 | 1000 to 10000 |
| CCn1cc2c(N3CCN[C@@H](C(C)C)C3)ccc(C(=O)Nc3cc(F)c4nc(C)cn4c3)c2n1 [Compound 535, 2-ethyl-N-{8-fluoro-2-methylimidazo[1,2-a]pyridin-6-yl}-4-[(3 S)-3-isopropylpiperazin-1-yl]indazole-7-carboxamide] | 100 to 1000 | > 10000 | 100 to 1000 | > 10000 |
| CCn1cc2c(N3CCN4CCOC[C@H]4C3)ccc(C(=O)Nc3cc(F)c4nc(C)cn4c3)c2n1 [Compound 537, 4-[(9aR)-hexahydro-1H-pyrazino[2,1-c][1,4]oxazin-8-yl]-2-ethyl-N-{8-fluoro-2-methylimidazo[1,2-a]pyridin-6-yl}indazole-7-carboxamide] | 1000 to 10000 | > 10000 | 1000 to 10000 | > 10000 |
| CCn1cc2c(N3CCN4CCOC[C@@H]4C3)ccc(C(=O)Nc3cc(F)c4nc(C)cn4c3)c2n1 [Compound 538, 4-[(9aS)-hexahydro-1H-pyrazino[2,1-c][1,4]oxazin-8-yl]-2-ethyl-N-{8-fluoro-2-methylimidazo[1,2-a]pyridin-6-yl} indazole-7-carboxamide] | 1000 to 10000 | 1000 to 10000 | 1000 to 10000 | 1000 to 10000 |
| CCn1cc2c(N(C)C3CCNCC3)ccc(C(=O)Nc3cc(F)c4nc(C)cn4c3)c2n1 [Compound 545, 2-ethyl-N-(8-fluoro-2-methylimidazo[1,2-a]pyridin-6-yl)-4-(methyl(piperidin-4-yl)amino)-2H-indazole-7-carboxamide] | 100 to 1000 | 1000 to 10000 | 100 to 1000 | > 10000 |
| CCn1cc2c(N(C)C3C[C@H]4CC[C@@H](C3)N4)ccc(C(=O)Nc3cc(F)c4nc(C)cn4c3)c2n1 (stereo partly drawn) [Compound 550, 4-[(1R,5S)-8-azabicyclo[3.2.1]octan-3-yl(methyl)amino]-2-ethyl-N-{8-fluoro-2-methylimidazo[1,2-a]pyridin-6-yl}indazole-7-carboxamide] | 1000 to 10000 | > 10000 | 1000 to 10000 | > 10000 |

Now from value to compound, other results behind:

| IC50 (MYB mRNA) [nM] | IC50 (HTT mRNA) [nM] | SMILES | AC50 (MYB mRNA) [nM] | AC50 (HTT mRNA) [nM] |
| --- | --- | --- | --- | --- |
| 1000 to 10000 | > 10000 | CCn1cc2c(N3CCC(C)(N)C3)ccc(C(=O)Nc3cc(F)c4nc(C)cn4c3)c2n1 (stereo not drawn) [Compound 539, 4-(3-amino-3-methylpyrrolidin-1-yl)-2-ethyl-N-{8-fluoro-2-methylimidazo[1,2-a]pyridin-6-yl}indazole-7-carboxamide] | 1000 to 10000 | > 10000 |
| 100 to 1000 | > 10000 | CCn1cc2c(N3CCN[C@@H](C4CC4)C3)ccc(C(=O)Nc3cc(F)c4nc(C)cn4c3)c2n1 [Compound 541, 4-[(3S)-3-cyclopropylpiperazin-1-yl]-2-ethyl-N-{8-fluoro-2-methylimidazo[1,2-a]pyridin-6-yl}indazole-7-carboxamide] | 100 to 1000 | > 10000 |
| 100 to 1000 | 1000 to 10000 | CCn1cc2c(N3CCN[C@H](C4CC4)C3)ccc(C(=O)Nc3cc(F)c4nc(C)cn4c3)c2n1 [Compound 542, 4-[(3R)-3-cyclopropylpiperazin-1-yl]-2-ethyl-N-{8-fluoro-2-methylimidazo[1,2-a]pyridin-6-yl}indazole-7-carboxamide] | 100 to 1000 | 1000 to 10000 |
| < 100 | 1000 to 10000 | CCn1cc2c(N3CCC(NC4CCC4)CC3)ccc(C(=O)Nc3cc(F)c4nc(C)cn4c3)c2n1 [Compound 543, 4-[4-(cyclobutylamino)piperidin-1-yl]-2-ethyl-N-{8-fluoro-2-methylimidazo[1,2-a]pyridin-6-yl}indazole-7-carboxamide] | < 100 | 1000 to 10000 |
| 1000 to 10000 | > 10000 | CCn1cc2c(N3CCC(C)(NC)C3)ccc(C(=O)Nc3cc(F)c4nc(C)cn4c3)c2n1 (stereo not drawn) [Compound 544, 2-ethyl-N-{8-fluoro-2-methylimidazo[1,2-a]pyridin-6-yl}-4-[3-methyl-3-(methylamino)pyrrolidin-1-yl]indazole-7-carboxamide] | 1000 to 10000 | > 10000 |
| > 10000 | > 10000 | CCn1cc2c(N3CC[C@@](C)(NC)C3)ccc(C(=O)Nc3cc(F)c4nc(C)cn4c3)c2n1 [Compound 547, 2-ethyl-N-{8-fluoro-2-methylimidazo[1,2-a]pyridin-6-yl}-4-[(3R)-3-methyl-3-(methylamino)pyrrolidin-1-yl]indazole-7-carboxamide] | > 10000 | > 10000 |
| > 10000 | > 10000 | CCn1cc2c(N3CC[C@](C)(NC)C3)ccc(C(=O)Nc3cc(F)c4nc(C)cn4c3)c2n1 [Compound 548, 2-ethyl-N-{8-fluoro-2-methylimidazo [1,2-a]pyridin-6-yl}-4-[(3S)-3-methyl-3-(methylamino)pyrrolidin-1-yl]indazole-7-carboxamide] | > 10000 | > 10000 |
| 100 to 1000 | 100 to 1000 | Cc1cn2cc(NC(=O)c3ccc(N4CC[C@@H](N5CCOCC5)C4)c4cn(C)nc34)cc(F)c2n1 [Compound 552, N-{8-fluoro-2-methylimidazo[1,2-a]pyridin-6-yl}-2-methyl-4-[(3R)-3-(morpholin-4-yl)pyrrolidin-1-yl]indazole-7-carboxamide] | 100 to 1000 | 100 to 1000 |
| 100 to 1000 | > 10000 | C=CCN[C@@H]1CCN(c2ccc(C(=O)Nc3cc(F)c4nc(C)cn4c3)c3nn(C)cc23)C1 [Compound 554, N-{8-fluoro-2-methylimidazo[1,2-a]pyridin-6-yl}-2-methyl-4-[(3R)-3-(prop-2-en-1-ylamino)pyrrolidin-1-yl]indazole-7-carboxamide] | < 100 | > 10000 |
| 100 to 1000 | 1000 to 10000 | CCn1cc2c(N3CCC(NCC4(O)CC4)CC3)ccc(C(=O)Nc3cc(F)c4nc(C)cn4c3)c2n1 [Compound 576, 2-ethyl-N-{8-fluoro-2-methylimidazo[1,2-a]pyridin-6-yl}-4-(4-{[(1-hydroxycyclopropyl)methyl]amino}piperidin-1-yl) indazole-7-carboxamide] | 100 to 1000 | > 10000 |
| 100 to 1000 | 100 to 1000 | CCn1cc2c(N3CCC(NCC(C)(C)O)CC3)ccc(C(=O)Nc3cc(F)c4nc(C)cn4c3)c2n1 [Compound 577, 2-ethyl-N-{8-fluoro-2-methylimidazo[1,2-a]pyridin-6-yl}-4-{4-[(2-hydroxy-2-methylpropyl)amino]piperidin-1-yl}indazole-7-carboxamide] | 100 to 1000 | 100 to 1000 |
| > 10000 | > 10000 | Cc1cn2cc(NC(=O)c3ccc(N4CC[C@@H](Nc5ccccc5)C4)c4cn(C)nc34)cc(F)c2n1 [Compound 579, N-{8-fluoro-2-methylimidazo[1,2-a]pyridin-6-yl}-2-methyl-4-[(3R)-3-(phenylamino)pyrrolidin-1-yl] indazole-7-carboxamide] | > 10000 | > 10000 |
| 100 to 1000 | > 10000 | CCn1cc2c(N3CCC(NC4C5CNCC54)CC3)ccc(C(=O)Nc3cc(F)c4nc(C)cn4c3)c2n1 (stereo not drawn) [Compound 580, 4-(4-{3-azabicyclo[3.1.0]hexan-6-ylamino}piperidin-1-yl)-2-ethyl-N-{8-fluoro-2-methylimidazo[1,2-a]pyridin-6-yl}indazole-7-carboxamide; bis(trifluoroacetic acid)] | 1000 to 10000 | > 10000 |
